Assays:
[1] = target: Serine/threonine-protein kinase N2 (Homo sapiens) (UniProt Q16513)
[2] = target: Leucine-rich repeat serine/threonine-protein kinase 2 (Homo sapiens) (UniProt Q5S007)
[3] = target: Tyrosine-protein kinase receptor UFO (Homo sapiens) (UniProt P30530)
[4] = target: Activin receptor type-2A (Homo sapiens) (UniProt P27037)
[5] = target: Serine/threonine-protein kinase WNK3 (Homo sapiens) (UniProt Q9BYP7)
[6] = target: Macrophage colony-stimulating factor 1 receptor (Homo sapiens) (UniProt P07333)
[7] = target: Tyrosine-protein kinase FRK (Homo sapiens) (UniProt P42685)
[8] = target: Receptor-interacting serine/threonine-protein kinase 4 (Homo sapiens) (UniProt P57078)
[9] = target: Mitogen-activated protein kinase 15 (Homo sapiens) (UniProt Q8TD08)
[10] = tested on: Epidermal growth factor receptor (Homo sapiens), P00533 [L858R,T790M]
[11] = target: Cyclin-dependent kinase 13 (Homo sapiens) (UniProt Q14004)
[12] = tested on: Tyrosine-protein kinase ABL1 (Homo sapiens), P00519 [F317I]
[13] = target: Cyclin-dependent kinase-like 3 (Homo sapiens) (UniProt Q8IVW4)
[14] = target: Sodium-dependent serotonin transporter (Homo sapiens) (UniProt P31645); settings: Compound concentration 10.0 uM
[15] = target: Serine/threonine-protein kinase Nek9 (Homo sapiens) (UniProt Q8TD19)
[16] = target: GABA-A receptor; anion channel (Rattus norvegicus) (UniProt O09028+P15431+P18506+P18508+P19969+P20236+P23574+P23576+P28471+P28473+P30191+P62813+P63079+P63138+Q91ZM7+Q9ES14); settings: Compound concentration 10.0 uM
[17] = target: Cyclin-dependent kinase-like 1 (Homo sapiens) (UniProt Q00532)
[18] = target: Dual specificity protein kinase CLK3 (Homo sapiens) (UniProt P49761)
[19] = target: Cyclin-dependent kinase 8 (Homo sapiens) (UniProt P49336)
[20] = target: Serine/threonine-protein kinase 10 (Homo sapiens, UniProt O94804)
[21] = target: Dual specificity tyrosine-phosphorylation-regulated kinase 1B (Homo sapiens) (UniProt Q9Y463)
[22] = target: Serine/threonine-protein kinase WNK4 (Homo sapiens) (UniProt Q96J92)
[23] = target: Serine/threonine-protein kinase TBK1 (Homo sapiens) (UniProt Q9UHD2)
[24] = target: AP2-associated protein kinase 1 (Homo sapiens) (UniProt Q2M2I8)
[25] = target: Casein kinase I isoform gamma-1 (Homo sapiens) (UniProt Q9HCP0)
[26] = target: 5-hydroxytryptamine receptor 1A (Homo sapiens) (UniProt P08908); settings: Compound concentration 10.0 uM
[27] = target: Serine/threonine-protein kinase 17A (Homo sapiens) (UniProt Q9UEE5)
[28] = tested on: Epidermal growth factor receptor (Homo sapiens), P00533 [G719S]
[29] = tested on: Tyrosine-protein kinase ABL1 (Homo sapiens), P00519 [F317I]; remark: listed apart in the source
[30] = target: Calcium/calmodulin-dependent protein kinase type 1G (Homo sapiens) (UniProt Q96NX5)
[31] = target: Tyrosine-protein kinase BTK (Homo sapiens) (UniProt Q06187)
[32] = target: Alpha-2B adrenergic receptor (Homo sapiens) (UniProt P18089); settings: Compound concentration 10.0 uM
[33] = tested on: Phosphatidylinositol 4,5-bisphosphate 3-kinase catalytic subunit alpha isoform (Homo sapiens), P42336 [H1047L]
[34] = tested on: Phosphatidylinositol 4,5-bisphosphate 3-kinase catalytic subunit alpha isoform (Homo sapiens), P42336 [E545A]
[35] = target: MAP kinase-activated protein kinase 5 (Homo sapiens) (UniProt Q8IW41)
[36] = target: Mitogen-activated protein kinase kinase kinase 14 (Homo sapiens) (UniProt Q99558)
[37] = target: Sodium-dependent noradrenaline transporter (Homo sapiens, UniProt P23975); settings: Compound concentration 10.0 uM
[38] = target: Calcium/calmodulin-dependent protein kinase type 1 (Homo sapiens) (UniProt Q14012)
Angiopoietin-1 receptor = Angiopoietin-1 receptor (Homo sapiens, UniProt Q02763)
[39] = target: Mitogen-activated protein kinase kinase kinase 1 (Homo sapiens) (UniProt Q13233)
[40] = target: Inhibitor of nuclear factor kappa-B kinase subunit epsilon (Homo sapiens) (UniProt Q14164)
[41] = target: Serine/threonine-protein kinase 36 (Homo sapiens) (UniProt Q9NRP7)
[42] = tested on: Receptor-type tyrosine-protein kinase FLT3 (Homo sapiens), P36888 [N841I]
[43] = target: Myosin-IIIa (Homo sapiens) (UniProt Q8NEV4)
[44] = Compound concentration 1000.0 nM
[45] = Compound concentration 100.0 nM

Chain of Tyrosine-protein kinase ABL1 (Homo sapiens), P00519 [F317I] (P00519 whole entry F317I): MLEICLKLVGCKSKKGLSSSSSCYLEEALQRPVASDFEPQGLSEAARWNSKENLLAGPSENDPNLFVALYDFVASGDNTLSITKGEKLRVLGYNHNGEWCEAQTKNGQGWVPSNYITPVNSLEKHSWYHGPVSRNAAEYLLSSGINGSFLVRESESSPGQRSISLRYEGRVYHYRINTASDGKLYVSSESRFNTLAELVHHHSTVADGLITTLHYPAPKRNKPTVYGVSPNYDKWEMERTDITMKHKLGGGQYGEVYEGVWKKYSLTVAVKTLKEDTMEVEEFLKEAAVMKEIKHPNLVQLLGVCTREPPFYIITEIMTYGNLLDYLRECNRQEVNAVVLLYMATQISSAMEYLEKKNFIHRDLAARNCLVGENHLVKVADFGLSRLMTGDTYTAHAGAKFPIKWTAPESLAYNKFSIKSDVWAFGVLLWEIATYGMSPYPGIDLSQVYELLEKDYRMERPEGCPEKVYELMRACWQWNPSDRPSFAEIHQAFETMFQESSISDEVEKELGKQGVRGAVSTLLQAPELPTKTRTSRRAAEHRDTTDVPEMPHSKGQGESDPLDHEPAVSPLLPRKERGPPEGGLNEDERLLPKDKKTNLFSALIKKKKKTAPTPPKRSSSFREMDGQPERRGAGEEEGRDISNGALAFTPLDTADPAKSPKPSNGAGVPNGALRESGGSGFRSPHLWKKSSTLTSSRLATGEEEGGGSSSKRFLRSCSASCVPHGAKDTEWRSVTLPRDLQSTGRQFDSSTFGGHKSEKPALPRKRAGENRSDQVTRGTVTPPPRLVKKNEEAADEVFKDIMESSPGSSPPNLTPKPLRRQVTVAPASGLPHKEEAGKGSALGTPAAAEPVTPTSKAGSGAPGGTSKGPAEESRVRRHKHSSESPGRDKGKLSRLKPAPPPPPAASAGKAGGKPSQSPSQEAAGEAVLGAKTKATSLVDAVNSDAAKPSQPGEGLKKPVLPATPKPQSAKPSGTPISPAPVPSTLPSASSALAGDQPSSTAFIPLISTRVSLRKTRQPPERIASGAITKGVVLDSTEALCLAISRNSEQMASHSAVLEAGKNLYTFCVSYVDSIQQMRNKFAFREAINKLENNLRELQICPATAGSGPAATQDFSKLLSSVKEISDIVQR
Chain of Serine/threonine-protein kinase Nek9 (Homo sapiens) (Q8TD19 whole entry): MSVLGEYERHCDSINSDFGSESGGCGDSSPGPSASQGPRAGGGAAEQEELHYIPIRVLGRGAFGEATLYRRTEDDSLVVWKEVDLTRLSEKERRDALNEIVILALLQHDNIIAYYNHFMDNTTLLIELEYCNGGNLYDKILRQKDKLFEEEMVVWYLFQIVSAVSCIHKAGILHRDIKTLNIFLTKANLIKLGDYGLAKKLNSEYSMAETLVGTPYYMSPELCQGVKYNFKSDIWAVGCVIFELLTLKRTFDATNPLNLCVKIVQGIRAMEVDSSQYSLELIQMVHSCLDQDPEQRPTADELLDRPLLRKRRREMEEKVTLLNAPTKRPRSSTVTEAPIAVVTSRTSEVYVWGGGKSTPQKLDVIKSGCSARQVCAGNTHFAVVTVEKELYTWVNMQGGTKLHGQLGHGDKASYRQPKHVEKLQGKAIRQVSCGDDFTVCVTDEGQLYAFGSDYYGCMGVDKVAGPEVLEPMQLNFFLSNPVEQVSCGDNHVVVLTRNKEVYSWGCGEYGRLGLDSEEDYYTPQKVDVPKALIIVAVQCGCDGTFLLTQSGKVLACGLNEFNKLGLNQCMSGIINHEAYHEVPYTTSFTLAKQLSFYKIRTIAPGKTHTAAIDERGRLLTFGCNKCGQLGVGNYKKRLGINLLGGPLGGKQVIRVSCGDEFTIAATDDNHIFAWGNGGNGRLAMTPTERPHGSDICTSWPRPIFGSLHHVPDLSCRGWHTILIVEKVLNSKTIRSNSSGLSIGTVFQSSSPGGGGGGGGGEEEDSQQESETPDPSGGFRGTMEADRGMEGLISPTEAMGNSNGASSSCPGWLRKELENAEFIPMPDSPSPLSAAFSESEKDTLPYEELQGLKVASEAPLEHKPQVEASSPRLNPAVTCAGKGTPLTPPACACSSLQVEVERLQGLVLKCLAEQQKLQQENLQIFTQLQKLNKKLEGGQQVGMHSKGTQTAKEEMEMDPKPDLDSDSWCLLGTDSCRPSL
Chain of Dual specificity protein kinase CLK3 (Homo sapiens) (P49761 whole entry, looked up): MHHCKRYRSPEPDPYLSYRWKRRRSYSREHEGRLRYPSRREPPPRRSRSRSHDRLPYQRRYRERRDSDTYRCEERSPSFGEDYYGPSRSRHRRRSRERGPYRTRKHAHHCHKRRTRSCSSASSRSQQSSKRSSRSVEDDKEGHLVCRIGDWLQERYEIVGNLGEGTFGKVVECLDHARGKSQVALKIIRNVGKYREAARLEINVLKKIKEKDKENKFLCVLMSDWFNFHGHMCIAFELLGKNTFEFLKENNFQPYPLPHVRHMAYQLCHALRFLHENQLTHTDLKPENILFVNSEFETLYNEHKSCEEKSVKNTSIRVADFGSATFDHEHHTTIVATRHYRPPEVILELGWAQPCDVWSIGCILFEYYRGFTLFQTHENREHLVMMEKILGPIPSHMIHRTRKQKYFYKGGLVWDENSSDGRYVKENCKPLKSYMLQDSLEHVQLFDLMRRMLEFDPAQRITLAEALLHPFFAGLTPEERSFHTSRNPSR
Chain of Inhibitor of nuclear factor kappa-B kinase subunit epsilon (Homo sapiens) (Q14164 whole entry): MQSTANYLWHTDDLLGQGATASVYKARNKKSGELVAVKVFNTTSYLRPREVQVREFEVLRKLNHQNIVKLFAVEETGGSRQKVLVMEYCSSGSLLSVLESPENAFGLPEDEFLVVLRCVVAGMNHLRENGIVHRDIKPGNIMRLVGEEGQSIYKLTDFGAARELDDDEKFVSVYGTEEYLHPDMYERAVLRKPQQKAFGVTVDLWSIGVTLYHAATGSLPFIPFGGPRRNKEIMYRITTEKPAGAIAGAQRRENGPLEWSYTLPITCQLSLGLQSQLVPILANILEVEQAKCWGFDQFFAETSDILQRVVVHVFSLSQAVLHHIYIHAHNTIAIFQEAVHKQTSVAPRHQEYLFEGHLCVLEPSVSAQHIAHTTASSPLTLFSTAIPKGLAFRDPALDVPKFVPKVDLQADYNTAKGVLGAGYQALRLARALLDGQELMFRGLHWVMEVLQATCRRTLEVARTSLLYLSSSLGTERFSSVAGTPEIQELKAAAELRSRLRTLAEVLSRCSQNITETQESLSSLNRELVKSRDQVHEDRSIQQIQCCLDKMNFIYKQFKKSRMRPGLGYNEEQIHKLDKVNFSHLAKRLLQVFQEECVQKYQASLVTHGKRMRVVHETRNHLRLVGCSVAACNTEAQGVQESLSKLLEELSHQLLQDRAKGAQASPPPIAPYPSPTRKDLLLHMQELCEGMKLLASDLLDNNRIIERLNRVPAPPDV
Chain of Mitogen-activated protein kinase 15 (Homo sapiens) (Q8TD08 whole entry): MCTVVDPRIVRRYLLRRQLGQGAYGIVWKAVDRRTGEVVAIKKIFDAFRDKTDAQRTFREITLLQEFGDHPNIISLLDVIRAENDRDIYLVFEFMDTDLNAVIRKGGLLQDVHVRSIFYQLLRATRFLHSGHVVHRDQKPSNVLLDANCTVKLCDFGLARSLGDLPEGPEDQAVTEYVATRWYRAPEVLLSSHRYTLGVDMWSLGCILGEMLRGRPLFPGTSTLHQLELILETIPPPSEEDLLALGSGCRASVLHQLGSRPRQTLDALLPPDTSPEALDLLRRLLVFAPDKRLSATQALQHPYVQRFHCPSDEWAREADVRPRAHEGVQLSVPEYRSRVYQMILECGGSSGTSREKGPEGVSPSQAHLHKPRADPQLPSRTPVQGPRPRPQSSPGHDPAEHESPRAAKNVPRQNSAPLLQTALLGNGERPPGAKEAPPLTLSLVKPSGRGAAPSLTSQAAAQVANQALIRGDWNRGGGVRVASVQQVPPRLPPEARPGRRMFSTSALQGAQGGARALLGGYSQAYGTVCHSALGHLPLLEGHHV
Chain of Phosphatidylinositol 4,5-bisphosphate 3-kinase catalytic subunit alpha isoform (Homo sapiens), P42336 [H1047L] (P42336 whole entry H1047L, canonical isoform): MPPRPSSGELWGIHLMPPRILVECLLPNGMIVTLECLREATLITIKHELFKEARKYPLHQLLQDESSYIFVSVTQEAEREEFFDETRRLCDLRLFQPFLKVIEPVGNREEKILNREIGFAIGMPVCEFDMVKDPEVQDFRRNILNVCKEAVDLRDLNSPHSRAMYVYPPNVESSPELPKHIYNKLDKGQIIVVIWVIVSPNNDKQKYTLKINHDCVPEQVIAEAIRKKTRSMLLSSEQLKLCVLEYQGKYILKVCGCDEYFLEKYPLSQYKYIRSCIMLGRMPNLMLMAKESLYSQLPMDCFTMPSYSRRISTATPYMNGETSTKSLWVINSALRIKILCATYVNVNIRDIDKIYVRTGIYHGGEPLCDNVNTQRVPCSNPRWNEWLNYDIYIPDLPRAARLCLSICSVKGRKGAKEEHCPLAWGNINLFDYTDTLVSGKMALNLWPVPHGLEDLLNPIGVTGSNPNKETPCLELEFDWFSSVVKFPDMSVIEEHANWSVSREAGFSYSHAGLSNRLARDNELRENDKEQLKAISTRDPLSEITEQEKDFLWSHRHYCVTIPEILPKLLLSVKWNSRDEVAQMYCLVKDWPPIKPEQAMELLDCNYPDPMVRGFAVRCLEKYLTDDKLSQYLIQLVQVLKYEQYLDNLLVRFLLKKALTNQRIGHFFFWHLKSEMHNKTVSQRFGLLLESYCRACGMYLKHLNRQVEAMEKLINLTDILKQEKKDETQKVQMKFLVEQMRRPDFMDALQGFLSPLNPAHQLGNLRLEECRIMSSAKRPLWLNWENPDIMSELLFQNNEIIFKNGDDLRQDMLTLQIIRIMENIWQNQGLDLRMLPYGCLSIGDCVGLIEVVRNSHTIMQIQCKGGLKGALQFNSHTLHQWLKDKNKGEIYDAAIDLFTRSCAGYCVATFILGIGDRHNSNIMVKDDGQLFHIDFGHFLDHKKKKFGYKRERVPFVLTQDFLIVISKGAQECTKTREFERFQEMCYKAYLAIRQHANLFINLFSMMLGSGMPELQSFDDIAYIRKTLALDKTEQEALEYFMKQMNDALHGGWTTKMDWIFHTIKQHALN
Chain of Phosphatidylinositol 4,5-bisphosphate 3-kinase catalytic subunit alpha isoform (Homo sapiens), P42336 [E545A] (P42336 whole entry E545A, canonical isoform): as the sequence (P42336 whole entry H1047L, canonical isoform) above, with E545A, L1047H counted along it

`Cc1cc(NC(=O)c2cccc(S(F)(F)(F)(F)F)c2)cc(-n2ccn3nc(-c4cccnc4)cc23)c1` [BAY-309] was tested. Which residual activity [1, 44] did it give?
The residual activity was 100%.

What about the residual activity [2, 44] of the same compound?
The residual activity was 74.6%.

And the residual activity [3, 44]?
The residual activity was 100%.

What about the residual activity [4, 44] of the same compound?
Its residual activity is 100%.

And the residual activity [5, 44]?
Its residual activity is 100%.

And the residual activity [6, 44]?
Its residual activity is 100%.

What about the residual activity [7, 44] of the same compound?
The residual activity was 100%.

And the residual activity [8, 44]?
The residual activity was 34.1%.

And the residual activity [9, 44]?
The residual activity was 100%.

What about the residual activity [10, 44] of the same compound?
The residual activity was 97.6%.

What about the residual activity [11, 44] of the same compound?
The residual activity was 64.2%.

What about the residual activity [12, 44] of the same compound?
The residual activity was 100%.

What about the residual activity [13, 44] of the same compound?
The residual activity was 100%.

And the inhibition [14]?
Its inhibition is 19.2%.

And the residual activity [15, 44]?
Its residual activity is 100%.

And the inhibition [16]?
Its inhibition is -4.43%.

And the residual activity [17, 44]?
The residual activity was 84.5%.

And the residual activity [18, 44]?
The residual activity was 100%.

What about the residual activity [19, 44] of the same compound?
Its residual activity is 86.2%.

And the residual activity [20, 44]?
The residual activity was 26.8%.

What about the residual activity [21, 44] of the same compound?
Its residual activity is 61.2%.

And the residual activity [22, 44]?
Its residual activity is 100%.

What about the residual activity [23, 44] of the same compound?
Its residual activity is 49.7%.

What about the residual activity [24, 44] of the same compound?
The residual activity was 100%.

And the residual activity [25, 44]?
The residual activity was 100%.

What about the inhibition [26] of the same compound?
The inhibition was 39.9%.

What about the residual activity [27, 44] of the same compound?
The residual activity was 100%.

And the residual activity [28, 44]?
The residual activity was 100%.

What about the residual activity [29, 44] of the same compound?
Its residual activity is 100%.

And the residual activity [30, 44]?
Its residual activity is 100%.

And the residual activity [31, 44]?
Its residual activity is 83.8%.

And the inhibition [32]?
Its inhibition is 11.9%.

And the residual activity [33, 44]?
The residual activity was 100%.

And the residual activity [34, 44]?
Its residual activity is 69.2%.

What about the residual activity [35, 44] of the same compound?
The residual activity was 100%.

What about the residual activity [36, 44] of the same compound?
The residual activity was 73.8%.

And the inhibition [37]?
The inhibition was 62.9%.

And the residual activity [38, 44]?
The residual activity was 77.9%.

What about the residual activity (Angiopoietin-1 receptor; [44]) of the same compound?
The residual activity was 84.2%.

And the residual activity [39, 44]?
Its residual activity is 90%.

And the residual activity [40, 44]?
The residual activity was 100%.

And the residual activity [41, 44]?
The residual activity was 93.1%.

And the residual activity [42, 44]?
The residual activity was 100%.

What about the residual activity [43, 44] of the same compound?
The residual activity was 100%.

With `Cc1cc(C)c(-n2ccn3nc(-c4cccnc4)cc23)cc1NC(=O)c1cc(C#N)cc(S(F)(F)(F)(F)F)c1` [BAY-826] as the compound, how does the residual activity [1, 45] read?
Its residual activity is 100%.

What about the residual activity [2, 45] of the same compound?
Its residual activity is 83.5%.

And the residual activity [3, 45]?
The residual activity was 80.5%.

What about the residual activity [4, 45] of the same compound?
The residual activity was 100%.

What about the residual activity [5, 45] of the same compound?
The residual activity was 61.9%.

And the residual activity [6, 45]?
The residual activity was 85.5%.

And the residual activity [7, 45]?
The residual activity was 59.1%.

What about the residual activity [8, 45] of the same compound?
The residual activity was 62.9%.

What about the residual activity [9, 45] of the same compound?
The residual activity was 94.1%.

What about the residual activity [10, 45] of the same compound?
Its residual activity is 100%.

And the residual activity [11, 45]?
Its residual activity is 59%.

What about the residual activity [12, 45] of the same compound?
Its residual activity is 65.8%.

And the residual activity [13, 45]?
The residual activity was 81.2%.

What about the inhibition [14] of the same compound?
The inhibition was 11.1%.

And the residual activity [15, 45]?
The residual activity was 72.2%.

What about the inhibition [16] of the same compound?
The inhibition was -6.93%.

What about the residual activity [17, 45] of the same compound?
The residual activity was 77.4%.

And the residual activity [18, 45]?
Its residual activity is 87.7%.

What about the residual activity [19, 45] of the same compound?
Its residual activity is 76.7%.

What about the residual activity [20, 45] of the same compound?
Its residual activity is 1.8%.

And the residual activity [21, 45]?
Its residual activity is 100%.

And the residual activity [22, 45]?
Its residual activity is 100%.

And the residual activity [23, 45]?
Its residual activity is 62.8%.

What about the residual activity [24, 45] of the same compound?
The residual activity was 95.9%.

And the residual activity [25, 45]?
Its residual activity is 91.1%.

What about the inhibition [26] of the same compound?
The inhibition was -6.68%.

And the residual activity [27, 45]?
Its residual activity is 100%.

What about the residual activity [28, 45] of the same compound?
The residual activity was 94.8%.

And the residual activity [29, 45]?
The residual activity was 76.4%.

What about the residual activity [30, 45] of the same compound?
The residual activity was 100%.

And the residual activity [31, 45]?
The residual activity was 100%.

What about the inhibition [32] of the same compound?
Its inhibition is 18.1%.

And the residual activity [33, 45]?
The residual activity was 82.7%.

And the residual activity [34, 45]?
Its residual activity is 73%.

And the residual activity [35, 45]?
Its residual activity is 91.7%.

And the residual activity [36, 45]?
The residual activity was 100%.

And the inhibition [37]?
The inhibition was 1.95%.

And the residual activity [38, 45]?
Its residual activity is 60.4%.

And the residual activity (Angiopoietin-1 receptor; [45])?
The residual activity was 3.1%.

And the residual activity [39, 45]?
The residual activity was 78.3%.

What about the residual activity [40, 45] of the same compound?
Its residual activity is 59.9%.

What about the residual activity [41, 45] of the same compound?
The residual activity was 80.8%.

What about the residual activity [42, 45] of the same compound?
The residual activity was 95.3%.

What about the residual activity [43, 45] of the same compound?
The residual activity was 94.9%.

— ChEMBL document CHEMBL4507270 (2021)
